Here are results for one compound from publication PMC5071873, “The Effects of Puerarin on Rat Ventricular Myocytes and the Potential Mechanism” (Scientific Reports, 2016).

Read-outs that look alike come from different tables or passages of the source.

Holding throughout (type): cell-based
For test [1], the target named is T1, IKs (Rattus norvegicus, UniProt Q9Z0N7).
T1 construct: endogenous in cells; host or cells: isolated adult rat ventricular myocytes
Put plainly: Whole-cell recording of IKs on rat ventricular myocytes. The following applies: puerarin 100 μM. As for the experimental part:
(§1) The Tyrode’s solution contained (mM): 126 NaCl, 5.4 KCl, 1.8 CaCl2, 1 MgCl2, 0.33 NaH2PO4, 10 HEPES and 10 glucose, pH 7.4 (adjusted with NaOH). The Ca^2+-free Tyrode’s solution was prepared by removing CaCl2 from the Tyrode’s solution. The Kreb’s solution used for cell storage contained (mM): 70 glutamic acid, 30 KCl, 15 taurine, 0.5 MgCl2, 10 KH2PO4, 0.5 EGTA, 10 HEPES, 10 glucose, and 1% albumin, pH 7.4 (adjusted with KOH). The enzyme solution used for the rat cardiomyocyte isolation contained 0.08 g/L collagenase (type II) and 1.0 g/L BSA in Kreb’s solution. For action potential recording on cardiomyocyte, the pipette solution contained (mM): 100 potassium aspartate, 30 KCl, 1 MgCl2, 5 Mg-ATP, 5 EGTA, 5 HEPES, pH 7.3 (adjusted with KOH); the Tyrode’s solution was used as the standard bath solution. For whole-cell recording of IKs on myocytes, the pipette solution contained (mM): 125 potassium aspartate, 20 KCl, 1 MgCl2, 5 Mg-ATP, 10 EGTA, 5 HEPES, pH 7.3 (adjusted with KOH); the bath solution contained (mM): 132 NaCl, 4 KCl, 1.8 CaCl2, 1.2 MgCl2, 10 HEPES, 5 glucose, pH 7.4 (adjusted with NaOH). […]
Cell suspensions were transferred into a chamber on the stage of a Nikon Eclipse Ti inverted microscope (Tokyo, Japan). […] The IK1 was calculated as the difference between the peak inward current and the holding current level. […]

Test [2] concerns the target T2, IKs channels (KCNQ and KCNE) (Homo sapiens, UniProt P51787).
T2 construct: expressed in transfected cells; host or cells: HEK293
As to the kind of experiment: Whole-cell patch clamp of IKs currents (Kv7.1 + KCNE1, voltage steps) in transfected HEK293 cells. The following applies: for IC50: HEK293, non-linear Hill fit, n = 6 each point; for IKs-tail current density / IKs current density: at 40 mV; for IKs-tail current density: control 23.5 ± 1.2; for IKs current density: control 33.8 ± 3.2. As for the experimental part: The Tyrode’s solution contained (mM): 126 NaCl, 5.4 KCl, 1.8 CaCl2, 1 MgCl2, 0.33 NaH2PO4, 10 HEPES and 10 glucose, pH 7.4 (adjusted with NaOH). The Ca^2+-free Tyrode’s solution was prepared by removing CaCl2 from the Tyrode’s solution. The Kreb’s solution used for cell storage contained (mM): 70 glutamic acid, 30 KCl, 15 taurine, 0.5 MgCl2, 10 KH2PO4, 0.5 EGTA, 10 HEPES, 10 glucose, and 1% albumin, pH 7.4 (adjusted with KOH). The enzyme solution used for the rat cardiomyocyte isolation contained 0.08 g/L collagenase (type II) and 1.0 g/L BSA in Kreb’s solution. For action potential recording on cardiomyocyte, the pipette solution contained (mM): 100 potassium aspartate, 30 KCl, 1 MgCl2, 5 Mg-ATP, 5 EGTA, 5 HEPES, pH 7.3 (adjusted with KOH); the Tyrode’s solution was used as the standard bath solution. For whole-cell recording of IKs on myocytes, the pipette solution contained (mM): 125 potassium aspartate, 20 KCl, 1 MgCl2, 5 Mg-ATP, 10 EGTA, 5 HEPES, pH 7.3 (adjusted with KOH); the bath solution contained (mM): 132 NaCl, 4 KCl, 1.8 CaCl2, 1.2 MgCl2, 10 HEPES, 5 glucose, pH 7.4 (adjusted with NaOH). 3 μM nifedipine and 5 μM E-4031 were used to block the calcium current and IKr, respectively. For whole-cell recording on HEK-293 cells, the pipette solution contained (mM): 140 KCl, 2 MgCl2, 10 HEPES, 0.1 EGTA, 4 K2-ATP, pH 7.3 (adjusted with KOH); the bath solution contained (mM): 120 NaCl, 5 KCl, 1.5 CaCl2, 1 MgCl2, 10 HEPES, 10 glucose, pH 7.4 (adjusted with NaOH). For single-channel recording, the pipette solution (extracellular) contained (mM): 145 KCl, 10 HEPES, 10 glucose, pH 7.4 (adjusted with KOH); the bath solution (intracellular) contained (mM): 145 KCl, 1.2 MgCl2, 10 HEPES, 0.1 EGTA, pH 7.38 (adjusted with KOH).
Cell suspensions were transferred into a chamber on the stage of a Nikon Eclipse Ti inverted microscope (Tokyo, Japan). The whole-cell recordings were performed using isolated single ventricular myocytes. Patch electrodes were pulled from a horizontal microelectrode puller (P-1000, Sutter Instrument Co, USA) and fire polished to final tip resistance of 4.0–8.0 MΩ when filled with internal solutions. Signals were amplified with an Axopatch 200B amplifier (Axon Instruments, USA) and filtered at 1 kHz. The pCLAMP 9.0 software was used to generate current and voltage clamp protocols, acquire data, and analyse the current traces. The whole-cell series resistance was compensated to more than 80%. All of the experiments were performed at room temperature (22 ± 1 °C). The whole-cell IK1 was elicited by a ramp voltage protocol from −140 to + 40 mV in 1 s, or at a 0 mV holding potential to test potentials from −140 to + 40 mV in 10 mV increments. The IK1 was calculated as the difference between the peak inward current and the holding current level. The whole-cell Kv7.1/IKs were elicited from a −30 mV holding potential to test potentials from −80 to + 40 mV in 10 mV increments.
Human Kir2.1 cDNA, Kir2.3 cDNA, Kv7.1 cDNA and KCNE1 cDNA, was cloned in Human Embryonic Kidney 293 cells, respectively. In some cases, Kv7.1 cDNA and KCNE1 cDNA were simultaneously cloned in Human Embryonic Kidney 293 cells.

In test [3] the target is T3, Kv7.1 (Homo sapiens, UniProt P51787).
T3 construct: expressed in transfected cells; host or cells: HEK293
As to the kind of experiment: Single-channel inside-out patch clamp recording of Kv7.1. The following applies: puerarin 100 μM, inside-out, intracellular side. As for the experimental part:
as §1
Single-channel activity was recorded at a series of holding levels ranging from 10 mV of 50 mV. […] Single-channel events were listed and analysed by pclampfit 9.0 (single-channel search-in-analyse function). […]

Turning to `O=c1c(-c2ccc(O)cc2)coc2c([C@@H]3O[C@H](CO)[C@@H](O)[C@H](O)[C@H]3O)c(O)ccc12` [Puerarin, 8-c-glucoside of daidzein], the “effect on forskolin-activated IKs current in rat cardiac myocytes” value in test [1] was “antagonized such activation effect”. Besides, the IC50 in test [2] (read-out: IC50, inhibition of IKs at the peak currents) was 55.6 µM; in test [2] (read-out: IC50, inhibition of IKs at the tail currents) it was 59.8 µM. Moreover, the “Hill coefficient, inhibition of IKs” value in test [2] (non-linear Hill fit) turned out to be 0.989. The IKs-tail current density was 17.8 ± 1.5 pA/pF in test [2] (puerarin 10 μM), 9.7 ± 1.1 pA/pF in test [2] (puerarin 100 μM), 6.4 ± 1.2 pA/pF in test [2] (puerarin 1 mM) and 5.2 ± 1.3 pA/pF in test [2] (puerarin 10 mM). Also, the IKs current density in test [2] (puerarin 10 μM) was 25.6 ± 2.4 pA/pF; in test [2] (puerarin 100 μM) it was 15.7 ± 1.9 pA/pF; in test [2] (puerarin 1 mM) it was 6.0 ± 1.3 pA/pF; in test [2] (puerarin 10 mM), 5.4 ± 1.7 pA/pF. The “open probability of Kv7.1 channel” value in test [3] is “significantly reduced”.
